Assay results: US20140113904A1, “TREATMENT OF CANCER WITH TOR KINASE INHIBITORS” (SIGNAL PHARMACEUTICALS, LLC, priority 2012, published 2014)
Read-outs that look alike come from different tables or passages of the source.

Columns and labels:
PRAS40 (T246) = assay: Phospho-PRAS40 (T246) in PC-3 cell lysates, MSD (Compound 2); assay type: cell-based; conditions: Homo sapiens; PC-3, 1 hour; read-out: mTORC2 PRAS40 (T246) IC50
Protocol: The direct substrate for mTORC1 was 4E-BP1(T46) and the indirect downstream substrate was S6RP (S235/S236). The direct substrate for mTORC2 was AKT (S473) and the indirect downstream substrates measured were GSK3β(S9) and PRAS40 (T246). Additionally, the phosphorylation status of AKT (T308), a phosphorylation site for PDK1, was monitored. Concentration-response curves were plotted and IC50 values determined. Cells were plated in 96-well flat bottom plates at the required density (PC-3 cells/well) and the cells were allowed to equilibrate at 37° C., 5% CO2 overnight. […] After the incubation period, the culture media was removed carefully with an aspirator. The plate was placed on ice and 50 μL of 1× Tris Lysis Buffer was added to each well. The plate was placed on a shaker at 4° C. for 1 hour to lyse the cells. At that point, the plate was either frozen at -80° C. for later analysis or immediately assayed for phosphoproteins as described below. To monitor interassay variability, a reference standard was included in the assay for PC-3 cells and the coefficient of variation for assay of […]) was 9.3% (n=50) and for assay of p-AKT (S473) was 28.6% (n=50). The assay plate was incubated with 150 μL of MSD Blocking Buffer for 1 hour with shaking at room temperature. […] Then 150 μL of 1×MSD Read Buffer T was added to each well. The plate was read on the SECTOR Imager plate reader.

pDNA-PK (S2056) = pDNA-PK (S2056) immunohistochemistry in PC3 tumors (Compound 2); assay type: in vivo, SCID mice; conditions: 5 mg/kg QD for 6 days
CD31 = CD31 immunohistochemistry in PC3 tumors (Compound 2); assay type: in vivo, SCID mice; conditions: 5 mg/kg oral QD for 6 days, 2 hours after last dose
S6RP (S235/236) = assay: Phospho-S6RP (S235/S236) in PC-3 cell lysates, MSD (Compound 2); assay type: cell-based; conditions: Homo sapiens; PC-3, 1 hour; read-out: mTORC1 S6RP (S235/236) IC50
pAKT (S473) = pAKT (S473) in PC3 tumors, MSD (Compound 2); assay type: in vivo, SCID mice; conditions: Mus musculus; for inhibition at 0.1 mg/kg: 0.1 mg/kg single oral dose; for inhibition at 0.3 mg/kg: 0.3 mg/kg single oral dose; for inhibition at 10 mg/kg: 10 mg/kg single oral dose
PC3 tumors = assay: Apoptosis TUNEL assay in PC3 tumors (Compound 2); assay type: in vivo, SCID mice; conditions: 5 mg/kg oral QD for 6 days, data not shown
Ki-67 = Ki-67 immunohistochemistry in PC3 tumors (Compound 1); assay type: in vivo, SCID mice; conditions: 25 mg/kg oral QD for 6 days, 2 hours after last dose
Protocol: Two hours after the last dose of either vehicle, Compound 1, or rapamycin, the mice were euthanized and the tumors were dissected. The tumors were snap frozen in liquid nitrogen and processed for immunohistochemistry (IHC) and TUNEL.
Five to ten micron thick cryostat sections of tumor samples were used for IHC. The expression of a cell proliferation marker Ki-67 was evaluated by IHC using anti-Ki-67 antibody. Anti-CD-31 antibody was used to determine blood vessel density and is a measurement of tumor angiogenesis. Frozen sections were fixed in 4% paraformaldehyde for 10 minutes at room temperature, washed in PBS, blocked and permeabilized with normal goat serum and triton x-100. Sections were then incubated with primary antibody (overnight) followed by incubation with secondary antibody (60 minutes). […] The sections were visualized with a Nikon E800 microscope equipped with fluorescence detection equipment and a digital camera attached to a computer.
The tissues sections processed for apoptosis or immunostained for proliferating cells (Ki-67) or blood vessels were quantitated using Metamorph software. Using 20× objective, 5 different fields from each section, 2 to 4 sections from each tumor, and 3 to 4 tumors from each treatment group or control were used for quantitation. The area of interest was expressed as the percent threshold area of the total area.

[1] = 0.5 h, read-out: PD Marker Inhibition (%) pAKT (S473)
[2] = 1 h, read-out: PD Marker Inhibition (%) pAKT (S473)
[3] = 3 h, read-out: PD Marker Inhibition (%) pAKT (S473)
[4] = 6 h, read-out: PD Marker Inhibition (%) pAKT (S473)
[5] = 10 h, read-out: PD Marker Inhibition (%) pAKT (S473)
[6] = 24 h, read-out: PD Marker Inhibition (%) pAKT (S473)

In the case of `CCN1C(=O)CNc2ncc(-c3ccc(-c4nc[nH]n4)nc3C)nc21` [Compound 2, 1-ethyl-7-(2-methyl-6-(1H-1,2,4-triazol-3-yl)pyridin-3-yl)-3,4-dihydropyrazino[2,3-b]pyrazin-2(1H)-one], the IC50 (PRAS40 (T246)) is reported as 49 nM, the “reduction in threshold area positive for pDNA-PK (S2056) vs vehicle” value (pDNA-PK (S2056); 2 hours after the last dose) is reported as 98% and the inhibition at 5 mg/kg (pDNA-PK (S2056); Mus musculus, through 24 hours after the last dose, read-out: pDNA-PK (S2056) inhibition (normalized to total DNA-PKcs)) is reported as roughly 90%. The “reduction of CD31 positive blood vessels vs vehicle” value (CD31) was 50%, the IC50 (S6RP (S235/236)) was 23 ± 7 nM and the inhibition at 0.1 mg/kg (pAKT (S473); [1]) was 50%. For the same compound, the inhibition at 0.1 mg/kg (pAKT (S473); [2]) was 25.1%, the inhibition at 0.1 mg/kg (pAKT (S473); [3]) was 15.3% and the inhibition at 0.1 mg/kg (pAKT (S473); [4]) was 14.2%. It also gave an inhibition at 0.1 mg/kg (pAKT (S473); [5]) of 2.5%, an inhibition at 0.1 mg/kg (pAKT (S473); [6]) of 0% and an inhibition at 0.3 mg/kg (pAKT (S473); [1]) of 77.2%. The inhibition at 0.3 mg/kg (pAKT (S473); [2]) was 70.7%, the inhibition at 0.3 mg/kg (pAKT (S473); [3]) was 52.9% and the inhibition at 0.3 mg/kg (pAKT (S473); [4]) was 42.2%. For the same compound, the inhibition at 0.3 mg/kg (pAKT (S473); [5]) was 23%, the inhibition at 0.3 mg/kg (pAKT (S473); [6]) was 9.6% and the inhibition at 1 mg/kg (pAKT (S473); 1 mg/kg single dose, through 10 hours, read-out: inhibition of pAKT (S473) in tumor) was roughly 65%. It also gave an inhibition at 1 mg/kg (pAKT (S473); 1 mg/kg single oral dose, 1 h, read-out: PD Marker Inhibition (%) pAKT (S473)) of 79.6%, an inhibition at 1 mg/kg (pAKT (S473); 1 mg/kg single oral dose, 3 h, read-out: PD Marker Inhibition (%) pAKT (S473)) of 65.1% and an inhibition at 1 mg/kg (pAKT (S473); 1 mg/kg single oral dose, 6 h, read-out: PD Marker Inhibition (%) pAKT (S473)) of 69.9%. The inhibition at 1 mg/kg (pAKT (S473); 1 mg/kg single oral dose, 10 h, read-out: PD Marker Inhibition (%) pAKT (S473)) was 65.5%, the inhibition at 1 mg/kg (pAKT (S473); 1 mg/kg single oral dose, 24 h, read-out: PD Marker Inhibition (%) pAKT (S473)) was 19% and the inhibition at 10 mg/kg (pAKT (S473); [2]) was 87.6%. The inhibition at 10 mg/kg (pAKT (S473); [3]) was 88.3%, the inhibition at 10 mg/kg (pAKT (S473); [4]) was 86.9% and the inhibition at 10 mg/kg (pAKT (S473); [5]) was 86%. For the same compound, the inhibition at 10 mg/kg (pAKT (S473); [6]) was 79.8% and the “number of TUNEL-positive cells vs vehicle” value (PC3 tumors) was “No significant change”.

`CO[C@H]1CC[C@H](N2C(=O)CNc3ncc(-c4ccc(C(C)(C)O)nc4)nc32)CC1` [Compound 1, 7-(6-(2-hydroxypropan-2-yl)pyridin-3-yl)-1-((1r,4r)-4-methoxycyclohexyl)-3,4-dihydropyrazino-[2,3-b]pyrazin-2(1H)-one] was tested, and the “reduction in the number of proliferating cells (Ki-67) vs vehicle” value (Ki-67) was 84%.
